Patent US7713696B2, “Genetic markers for prognosis of antifolate treatment efficacy” (Academisch Zeikenhuis Leiden H.O.D.N. Lumc, priority 2006, dated 2010)

Tests used:
[1] = system: Rheumatoid arthritis (RA) patients; settings: literature refs 7-9; cited from earlier work
recent-onset RA patients [2] = experiment: Adverse drug events during six months of methotrexate therapy, BeSt trial; format: in vivo, human
Description: Toxicity was evaluated by counting each reported adverse drug event and its consequences for the patient and treatment. Adverse drug events were spontaneously reported by the patients, or were reported as a result of non-specific questioning on patients' well-being by the investigator, by physical examination or laboratory measurements during follow up. In case of adverse drug events, methotrexate was continued at the lowest tolerated dose, or if methotrexate was not tolerated at all, the DMARD therapy was adjusted according to the protocol. Of all reported adverse drug events, the following non-infectious adverse drug events were evaluated explicitly: gastrointestinal adverse drug events defined as patients' general well-being, nausea, vomiting, diarrhea, and constipation; liver adverse drug events defined as all cases of elevated functional liver enzymes resulting in methotrexate dose adjustment or discontinuation; pneumonitis; skin and mucosal disorders. Moreover, patients were evaluated for leucopenia (<4.10^9/L), ALAT 3 times upper limit of normal (>135 U/L) and for alkaline phosphatase (AF) 3 times the upper limit of normal (>360 U/L).
For toxicity analysis, all patients who altered therapy from methotrexate before six months of follow-up were verified for adverse drug events after change of therapy and included in the analysis. The analyses of laboratory measurements were performed for completers only. The toxicity regression analysis was tested for the following confounders: weight, creatinine clearance, methotrexate dosage group (15 or 25 mg) and use of alcohol.

recent-onset RA patients [3] = experiment: Clinical response to methotrexate monotherapy (DAS) in genotyped patients of the BeSt trial; format: in vivo, human; settings: for Good clinical response at six months, number of patients / Good clinical response at six months, percentage of patients: DAS≦2.4
From the text: The 247 patients enrolled in the study was a sub-cohort of 508 patients participating in the BeSt trial (25). Inclusion criteria for this trial were fulfilment of the American College of Rheumatology (ACR) 1987 criteria, age of 18 years or older, a disease duration of less than 2 years. All patients had to have an active disease defined as ≧6/66 swollen joints and ≧6/68 tender joints and either an ESR ≧28 mm/hr or a Visual Analogue Scale (VAS) for global health ≦20 mm (on a scale of 0-100, 0=worst, 100=best).
The BeSt trial is a randomized, multi-centre, single-blinded, clinical study comparing the clinical efficacy of four different treatment strategies in early rheumatoid arthritis; sequential monotherapy (n=126 starting with methotrexate), step-up to combination therapy with sulphasalazine (n=121 starting with methotrexate), initial combination therapy with methotrexate, sulphasalazine and a high tapered dose of prednisolone (n=133) or initial biologic therapy with infliximab and methotrexate (n=128). In the present study, only patients allocated to initial single use of methotrexate were selected (n=247).
The primary objective of treatment in the BeSt study was achieving good clinical response as defined by the DAS≦2.4 (26-28). The DAS is a validated composite outcome measure consisting of the Ritchie articular index (RAI), the number of swollen joints (SJC, out of 44), general well being as indicated by the patient on a visual analogue scale (VAS), and the Erythrocyte Sedimentation Rate (ESR). A research nurse who remained blinded for the allocated treatment group scored the DAS every three months.
All selected patients started with oral methotrexate 7.5 mg weekly, increased to 15 mg weekly after 4 weeks, combined with folic acid (1 mg per day). In case of insufficient clinical response at three months of follow-up (DAS>2.4), the dosage was increased stepwise to 25 mg weekly, either orally or parenterally as decided by the rheumatologist. If the clinical response remained insufficient with methotrexate 25 mg weekly, patients were treated according to the next step of the BeSt protocol; patients with methotrexate sequential monotherapy switched to sulphasalazine 1000 mg twice daily; patients with initial step-up combination therapy, sulphasalazine 1000 mg twice daily was added to methotrexate. Concomitant therapies with nonsteroidal anti-inflammatory drugs (NSAIDs), as well as intra-articular injections with corticosteroids, were allowed for all treatment groups. For current analysis, clinical data for the first six months of follow-up were used, representing methotrexate treatment only.
“Responders” were defined as patients with DAS ≦2.4 (good clinical response) based on EULAR response criteria (26-28) and ‘non-responders ’ as patients with DAS >2.4 at six months of follow up.
Differences in baseline characteristics were analysed by Student's t-test for continuous variables or Chi-square test for dichotomous variables. Differences in genotype distribution for response and toxicity were tested by 3 by 2 cross tabs for each genotype, and by 2 by 2 cross tabs for carriers versus non-carriers analysis with the two-sided Chi-square test. We used binary logistic analysis in case of differences in genotype distribution, to calculate odds ratios for achieving good response or experiencing adverse drug events. Age and gender were identified as possible confounders and were used as covariates in all regression analyses. The primary efficacy endpoint was good clinical response at six months (DAS≦2.4). DAS good clinical response status required patients to be present at a given time point; no values were carried forward. Secondary endpoints were good clinical improvement defined as change in DAS>1.2 (ΔDAS>1.2) and moderate clinical improvement defined as change in DAS>0.6 (ΔDAS>0.6). […]

[4] = all patients with toxicity data (n=200)

## CN(Cc1cnc2nc(N)nc(N)c2n1)c1ccc(C(=O)N[C@@H](CCC(=O)O)C(=O)O)cc1 [methotrexate]
[1]
  patients showing good clinical response: about 40%
recent-onset RA patients [2]; AMPD1 CC genotype
  Adverse drug events at six months, number of patients with event/patients: 42/146
  Adverse drug events at six months, percentage of patients: (29%)
recent-onset RA patients [2]; AMPD1 CT genotype
  Adverse drug events at six months, number of patients with event/patients: 16/50
  Adverse drug events at six months, percentage of patients: (32%)
recent-onset RA patients [2]; AMPD1 TT genotype
  Adverse drug events at six months, number of patients with event/patients: 1/3
  Adverse drug events at six months, percentage of patients: (33%)
recent-onset RA patients [2]; ATIC CC genotype
  Adverse drug events at six months, number of patients with event/patients: 21/94
  Adverse drug events at six months, percentage of patients: (22%)
recent-onset RA patients [2]; ATIC CG genotype
  Adverse drug events at six months, number of patients with event/patients: 33/91
  Adverse drug events at six months, percentage of patients: (36%)
recent-onset RA patients [2]; ATIC G-allele carriers, six months, not significant after adjustment
  times more likely to experience any adverse drug event: 2 times
recent-onset RA patients [2]; ATIC GG genotype
  Adverse drug events at six months, number of patients with event/patients: 6/15
  Adverse drug events at six months, percentage of patients: (40%)
recent-onset RA patients [2]; ITPA CA genotype
  Adverse drug events at six months, number of patients with event/patients: 8/30
  Adverse drug events at six months, percentage of patients: (27%)
recent-onset RA patients [2]; ITPA CC genotype
  Adverse drug events at six months, number of patients with event/patients: 51/169
  Adverse drug events at six months, percentage of patients: (30%)
recent-onset RA patients [2]; [4]
  Gastrointestinal (general wellbeing, nausea, vomiting, diarrhoea, constipation), frequency at 6 months, number of patients: 26
  Gastrointestinal (general wellbeing, nausea, vomiting, diarrhoea, constipation), frequency at 6 months, percentage: (13.0%)
  Hepatic elevated liver enzymes, frequency at 6 months, number of patients: 16
  Hepatic elevated liver enzymes, frequency at 6 months, percentage: (8%)
  Overall adverse drug events, total population, frequency at 6 months, number of patients: 60
  Overall adverse drug events, total population, frequency at 6 months, percentage: (30%)
  Pneumonitis, frequency at 6 months, number of patients: 0
  Pneumonitis, frequency at 6 months, percentage: (0%)
  Skin and mucosa disorders, frequency at 6 months, number of patients: 17
  Skin and mucosa disorders, frequency at 6 months, percentage: (8.5%)
recent-onset RA patients [2]; n=60 of 200
  study population that experienced at least one adverse drug event during six months of treatment: Thirty
recent-onset RA patients [2]; non-responders carrying the ATIC G-allele compared to all ATIC G-allele carriers, 95% CI 1.1,7.5
  odds ratio for adverse drug events: 2.8
recent-onset RA patients [2]; patients with good clinical response at six months compared to non-responders, 95% CI 0.22, 0.91
  odds ratio for adverse drug events: 0.45
recent-onset RA patients [3]; AMPD1 CC genotype, six months
  Good clinical response, Methotrexate 15 mg weekly, number of responders/patients: 25/36
  Good clinical response, Methotrexate 15 mg weekly, percentage: (69%)
  Good clinical response, Methotrexate 25 mg weekly, number of responders/patients: 30/98
  Good clinical response, Methotrexate 25 mg weekly, percentage: (31%)
recent-onset RA patients [3]; AMPD1 CC genotype
  Good clinical response at six months, number of patients: 57
  Good clinical response at six months, percentage of patients: (38%)
recent-onset RA patients [3]; AMPD1 CC genotyped patients
  good clinical response percentage at 6 months: 42%
recent-onset RA patients [3]; AMPD1 CT genotype, six months
  Good clinical response, Methotrexate 15 mg weekly, number of responders/patients: 15/15
  Good clinical response, Methotrexate 15 mg weekly, percentage: (100%)
  Good clinical response, Methotrexate 25 mg weekly, number of responders/patients: 13/29
  Good clinical response, Methotrexate 25 mg weekly, percentage: (45%)
recent-onset RA patients [3]; AMPD1 CT genotype
  Good clinical response at six months, number of patients: 28
  Good clinical response at six months, percentage of patients: (56%)
recent-onset RA patients [3]; AMPD1 T-allele and ATIC CC (n=22)
  percentage of good clinical response at six months: 68
recent-onset RA patients [3]; AMPD1 T-allele and ITPA CC (n=41)
  percentage of good clinical response at six months: 63
recent-onset RA patients [3]; AMPD1 T-allele carriers compared to AMPD1 CC, six months
  times more likely to achieve good clinical response: 2.1 times
recent-onset RA patients [3]; AMPD1 T-allelic carriers
  good clinical response percentage at 6 months: 60%
recent-onset RA patients [3]; AMPD1 TT genotype, six months
  Good clinical response, Methotrexate 15 mg weekly, number of responders/patients: 1/1
  Good clinical response, Methotrexate 15 mg weekly, percentage: (100%)
  Good clinical response, Methotrexate 25 mg weekly, number of responders/patients: 0/2
  Good clinical response, Methotrexate 25 mg weekly, percentage: (0%)
recent-onset RA patients [3]; AMPD1 TT genotype
  Good clinical response at six months, number of patients: 1
  Good clinical response at six months, percentage of patients: (33%)
recent-onset RA patients [3]; ATIC CC and ITPA CC (n=82)
  percentage of good clinical response at six months: 56
recent-onset RA patients [3]; ATIC CC genotype (n=97)
  patients in remission (DAS <1.6) at one-year of follow-up: 35%
recent-onset RA patients [3]; ATIC CC genotype, six months
  Good clinical response, Methotrexate 15 mg weekly, number of responders/patients: 22/25
  Good clinical response, Methotrexate 15 mg weekly, percentage: (88%)
  Good clinical response, Methotrexate 25 mg weekly, number of responders/patients: 28/61
  Good clinical response, Methotrexate 25 mg weekly, percentage: (46%)
recent-onset RA patients [3]; ATIC CC genotype
  Good clinical response at six months, number of patients: 51
  Good clinical response at six months, percentage of patients: (53%)
recent-onset RA patients [3]; ATIC CC patients
  good clinical response percentage at 6 months: 58%
recent-onset RA patients [3]; ATIC CG genotype, six months
  Good clinical response, Methotrexate 15 mg weekly, number of responders/patients: 15/22
  Good clinical response, Methotrexate 15 mg weekly, percentage: (68%)
  Good clinical response, Methotrexate 25 mg weekly, number of responders/patients: 14/60
  Good clinical response, Methotrexate 25 mg weekly, percentage: (23%)
recent-onset RA patients [3]; ATIC CG genotype
  Good clinical response at six months, number of patients: 30
  Good clinical response at six months, percentage of patients: (33%)
recent-onset RA patients [3]; ATIC G-allelic carriers
  good clinical response percentage at 6 months: 37%
recent-onset RA patients [3]; ATIC GG genotype, six months
  Good clinical response, Methotrexate 15 mg weekly, number of responders/patients: 4/5
  Good clinical response, Methotrexate 15 mg weekly, percentage: (80%)
  Good clinical response, Methotrexate 25 mg weekly, number of responders/patients: 2/9
  Good clinical response, Methotrexate 25 mg weekly, percentage: (22%)
recent-onset RA patients [3]; ATIC GG genotype
  Good clinical response at six months, number of patients: 6
  Good clinical response at six months, percentage of patients: (38%)
recent-onset RA patients [3]; ITPA A-allelic carriers
  good clinical response percentage at 6 months: 26%
recent-onset RA patients [3]; ITPA CA genotype, six months
  Good clinical response, Methotrexate 15 mg weekly, number of responders/patients: 3/5
  Good clinical response, Methotrexate 15 mg weekly, percentage: (60%)
  Good clinical response, Methotrexate 25 mg weekly, number of responders/patients: 4/22
  Good clinical response, Methotrexate 25 mg weekly, percentage: (18%)
recent-onset RA patients [3]; ITPA CA genotype
  Good clinical response at six months, number of patients: 7
  Good clinical response at six months, percentage of patients: (23%)
recent-onset RA patients [3]; ITPA CC genotype, six months
  Good clinical response, Methotrexate 15 mg weekly, number of responders/patients: 38/47
  Good clinical response, Methotrexate 15 mg weekly, percentage: (81%)
  Good clinical response, Methotrexate 25 mg weekly, number of responders/patients: 39/107
  Good clinical response, Methotrexate 25 mg weekly, percentage: (36%)
recent-onset RA patients [3]; ITPA CC genotype
  Good clinical response at six months, number of patients: 79
  Good clinical response at six months, percentage of patients: (45%)
recent-onset RA patients [3]; ITPA CC genotyped
  good clinical response percentage at 6 months: 50%
recent-onset RA patients [3]; overall population
  percentage responders (DAS≦2.4) at six months: 47%
recent-onset RA patients [3]; patients carrying all the favourable genotypes (n=16)
  response rate at six months: 88%
recent-onset RA patients [3]; patients carrying all the favourable genotypes (n=16), logistic regression
  odds ratio for achieving good clinical response: 27.8
recent-onset RA patients [3]; patients carrying all three unfavourable genotypes (n=10)
  response rate at six months: 10%
